The values that follow come from patent US20230304010A1, “COMPOSITIONS AND METHODS FOR TREATING VIRAL INFECTIONS” (priority 2020, published 2023).

The subject of experiment [1] is SARS-CoV-2 variants (Alpha/Beta/Delta). In kind it is cell-based.
Experiment [2] has as its system ACE2 : SARS-CoV-2 Spike Beta (B1.351/South Africa) variant. It counts as binding. The following applies: read-out: IC50, Beta (B1312).
The test system of experiment [3] is ACE2 : SARS-CoV-2 Spike Delta (B1 617 2/India) variant. In kind it is binding. To be noted: read-out: IC50, Delta (B1617).
Experiment [4] has as its system ACE2 : SARS-CoV-2 Spike Epsilon (B1429) variant. In kind it is binding.
Experiment [5] relates to ACE2 : SARS-CoV-2 Spike Gamma (P1/Brazil) variant. In kind it is binding.
In experiment [6] the test system is ACE2 : SARS-CoV-2 Spike Alpha (B1.1.7/United Kingdom) variant. It counts as binding. The following applies: read-out: IC50, Alpha (B117).

Ends that are not written are not given here.

Regarding “Ac-KTFLDKFNHEAEDLFPGPKWSAFLKEQSTLAQMYG [Seq28]”, the “fold stronger anti-SARS-CoV-2 activity than Remdesivir” value in experiment [1] worked out at 200 fold. Further, the IC50 in experiment [2] stood at 31.5 ± 5 nM; in experiment [3], 29.2 ± 11 nM; in experiment [4], 28.8 ± 7 nM; in experiment [5], 41.7 ± 11 nM; in experiment [6] it was 24.6 ± 11 nM.
